The record followed here is patent US9079891B2, “Compounds that modulate intracellular calcium” (CALCIMEDICA, INC., priority 2010, dated 2015).

pIC50: −log10 of the molar value. Read-outs that look alike come from different tables or passages of the source. Some results are limits rather than exact numbers.

One assay has as its system RBL-2H3 cells. The assay can be described thus: Fluorescence-based assay of store-operated calcium entry in RBL-2H3 cells (FLIPR, thapsigargin). The class given is cell-based, rat. Conditions: Fluo-4, Upslope 0-7 sec, read-out: FLIPR_CRAC: 9 pt CRC - Fluo4_TG-D: RBL-2H3: IC50: Upslope 0-7 sec. Here is the method: B. Fluorescence-Based Assay of Store-Operated Calcium Entry in RBL-2H3 Cells.
RBL-2H3 cells are obtained from ATCC and maintained in complete medium with 10% FBS at 37° C./6% CO2.
The day prior to performing the assay, RBL-2H3 cells are plated in 50 μl of complete medium in a 384 well plate. Cells are grown at 37° C./6% CO2 overnight and grow to 50-60% confluence by the next day. On the assay day, 1.5 μM Fluo-4-AM dye (Invitrogen) in complete medium is added and incubated for 1 hour at RT. Cells are washed twice in Ca^2+-free HBSS buffer and 35 μl Ca^2+-free HBSS buffer is added to each well. 10 μl of a test compound prepared in a Ca^2+-free HBSS solution at 4.5× of the desired concentration is added to a well and incubated for 5 minutes at RT. 10 μl of thapsigargin prepared in a Ca^2+-free HBSS solution at 5.5× of the desired concentration (5.5 uM) is added to each well and incubated for an additional 25 minutes. The initial baseline fluorescence signal is measured with a FLIPR^384 (Molecular Devices) plate reader. 5 μl of 12× calcium in HBSS (12 mM) is added and changes in cellular fluorescence are measured with the FLIPR^384 plate reader. In each well, the change in the fluorescent signal as a function of time due to calcium entry into the cell is determined by calculating the difference between the fluorescent signal measured 7 seconds after calcium addition and the initial baseline fluorescence signal at time zero (t=0). This parameter is designated Upslope. The IC50 value is calculated as the concentration at which 50% of the Upslope is inhibited.

Assay [1] relates to secreted IL-2 in Jurkat T cells. Kind of assay: In vitro assay of cytokine (IL-2) release from T cells. It is filed as cell-based. Conditions: Jurkat E6-1 cells, PHA/TPA stimulation 20 hours, IL-2 ELISA. Here is the method: In Vitro Assay of Cytokine Release from T Cells
Jurkat E6-1 cells are obtained from ATCC and maintained in complete medium with 10% FBS at 37° C./6% CO2.
The day prior to performing the assay, Jurkat T cells are plated in 90 μL of HBSS Buffer with 1.8 mM CaCl2 and 1.75% fetal bovine serum (FBS) in a 96 well plate at a density of 1.5×10^5 cells/well for 3 hours. 10 μl of 10× test compound prepared in HBSS is added and incubated for 10 minutes at 37° C./6% CO2. Cells are stimulated by the addition of 10 μl of 11×PHA/TPA (27.5 μg/mL PHA/880 nM TPA) and incubated at 37° C./6% CO2 for 20 hours. On the following day, the supernatants are collected and assayed for IL-2 levels by ELISA according to the manufacturer's protocols. The IC50 value is calculated as the concentration at which 50% of secreted IL-2 in vehicle treated cells is inhibited.

In assay [2] the target is T1, recombinant human STIM1 and Orai1 (Homo sapiens, UniProt Q96D31).
T1 construct: c-myc (C); expressed in transfected cells; host or cells: HEK-293 cells stably expressing human STIM1 and human Orai1
Kind of assay: Fluorescence-based assay of store-operated calcium entry in Orai1/STIM1 stable cells (FLIPR). Conditions: HEK-293 cells stably expressing human Orai1/STIM1; Fluo-4; Peak-Basal signal; read-out: FLIPR_CRAC: 9 point CRC: O1S1_JR251: IC50: Peak_over_Basal. The class given is cell-based. As to the method:
A. Fluorescence-Based Assay of Store-Operated Calcium Entry in Orai1/Stim1 Stable Cells.
Cells stably expressing recombinant human STIM1 and Orai1 are generated by transfecting a human Orai1 expression plasmid (pcDNA3.1-Orai1-cmyc) into HEK-293 cells stably overexpressing human STIM1 (Roos et al. 2005 JCB 169(3): 435-445). Colonies of cells stably expressing both STIM1 and Orai1 proteins are selected and then subcloned by limiting dilution. Cells were cultured at 37° C./6% CO2 in complete medium with 10% FBS and appropriate selection markers.
The day prior to performing the assay Orai1/STIM1 stable cells are plated in 50 μL of complete medium at 90-95% confluence in a 384 well plate. Cells are grown at 37° C./6% CO2 overnight. On the day of the assay, 1.5 μM fluo-4-AM (Invitrogen) in complete medium is added to the cells, which are then incubated for 1 hour at RT. Cells are washed once in Ca^2+-free HBSS (Hank's buffered saline solution) and 35 μl of Ca^2+-free HBSS is added to each well. Test compounds are added to wells in a 10 μL Ca^2+-free HBSS solution, prepared at 4.5× the desired final concentration, and incubated for 30 minutes at RT. The initial baseline fluorescence signal is then measured with a FLIPR^384 (Molecular Devices) plate reader. Calcium entry is initiated by adding 5 μl of 10×CaCl2 (10 mM) in HBSS, and changes in cellular fluorescence are measured with the FLIPR^384 plate reader. In each well, the magnitude of the fluorescence signal as a result of calcium entry into the cell is determined by calculating the difference between the peak fluorescence signal measured after calcium addition and the initial baseline fluorescence signal (designated Peak-Basal). IC50 values are typically calculated as the concentration that inhibited 50% of the Peak-Basal signal.

T1 sequence (Q96D31 whole entry): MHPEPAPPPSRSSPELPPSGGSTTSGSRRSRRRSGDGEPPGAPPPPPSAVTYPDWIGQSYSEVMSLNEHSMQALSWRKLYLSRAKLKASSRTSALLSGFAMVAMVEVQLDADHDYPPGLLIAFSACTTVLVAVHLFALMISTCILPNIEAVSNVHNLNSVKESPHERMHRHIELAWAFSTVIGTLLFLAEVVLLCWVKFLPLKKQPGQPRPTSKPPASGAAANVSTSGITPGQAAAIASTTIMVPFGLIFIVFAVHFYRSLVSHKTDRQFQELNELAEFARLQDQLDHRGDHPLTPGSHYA

Turning to `Cc1nc2cc(Cl)c(-c3ccc(C(=O)Nc4ccccc4Cl)s3)cc2o1` [Example 1, [5-(5-chloro-2-methylbenzoxazol-6-yl)(2-thienyl)]-N-(2-chlorophenyl)carboxamide], the results for the negative-log IC50 (pIC50) (with RBL-2H3 cells (Rattus norvegicus); in assay [1] (Homo sapiens); in assay [2]) were more than 6.22, more than 7.30 and more than 6.22, respectively.

Consider `Cc1nc2cc(Cl)c(-c3ccc(C(=O)Nc4ccccc4F)s3)cc2o1` [Example 2, [5-(5-chloro-2-methylbenzoxazol-6-yl)(2-thienyl)]-N-(2-fluorophenyl)carboxamide], for which the negative logarithm of the IC50 (pIC50) (in general, the negative decadic logarithm of the IC50, by convention in mol/L) with RBL-2H3 cells (Rattus norvegicus) was more than 6.22; in assay [1] (Homo sapiens), more than 7.30; in assay [2], more than 6.22.

As to `Cc1nc2cc(Cl)c(-c3ccc(C(=O)Nc4c(F)cccc4F)s3)cc2o1` [Example 3, [5-(5-chloro-2-methylbenzoxazol-6-yl)(2-thienyl)]-N-(2,6-difluorophenyl)carboxamide], the negative logarithm of the IC50 (pIC50) in the assay on RBL-2H3 cells (Rattus norvegicus) is more than 6.22; in assay [1] (Homo sapiens), more than 7.30; in assay [2], more than 6.22.

Turning to `Cc1cc2scnc2cc1-c1ccc(C(=O)Nc2c(F)cccc2F)s1` [Example 4, N-(2,6-difluorophenyl)[5-(6-methylbenzothiazol-5-yl)(2-thienyl)]carboxamide], the figures for the pIC50 (in the assay with RBL-2H3 cells (Rattus norvegicus); in assay [1] (Homo sapiens); in assay [2]) were more than 6.22, more than 7.30 and more than 6.22, respectively.

For the molecule `Cc1cc2scnc2cc1-c1ccc(C(=O)Nc2ccccc2F)s1` [Example 5, N-(2-fluorophenyl)[5-(6-methylbenzothiazol-5-yl)(2-thienyl)]carboxamide], the results for the pIC50 (in the assay with RBL-2H3 cells (Rattus norvegicus); in assay [1] (Homo sapiens); in assay [2]) were more than 6.22, more than 7.30 and more than 6.22, respectively.

For the molecule `Cc1cc2scnc2cc1-c1ccc(C(=O)Nc2ccccc2Cl)s1` [Example 6, N-(2-chlorophenyl)[5-(6-methylbenzothiazol-5-yl)(2-thienyl)]carboxamide], the figures for the pIC50 (in the assay with RBL-2H3 cells (Rattus norvegicus); in assay [1] (Homo sapiens); in assay [2]) were more than 6.22, more than 7.30 and more than 6.22, respectively.

On to `O=C(Nc1c(F)cccc1F)c1ccc(-c2cc3scnc3cc2Cl)s1` [Example 7, N-(2,6-difluorophenyl)[5-(5-chlorobenzothiazol-6-yl)(2-thienyl)]carboxamide], for which the pIC50 is more than 6.22 with RBL-2H3 cells (Rattus norvegicus), more than 7.30 in assay [1] (Homo sapiens) and more than 6.22 in assay [2].

For `O=C(Nc1ccccc1F)c1ccc(-c2cc3scnc3cc2Cl)s1` [Example 9, [5-(5-chlorobenzothiazol-6-yl)(2-thienyl)]-N-(2-fluorophenyl)carboxamide], the negative-log IC50 (pIC50) is more than 6.22 with RBL-2H3 cells (Rattus norvegicus), more than 7.30 in assay [1] (Homo sapiens) and more than 6.22 in assay [2].

In the case of `Cc1cc2c(C)noc2cc1-c1ccc(C(=O)Nc2c(F)cccc2F)s1` [Example 10, N-(2,6-difluorophenyl)[5-(3,5-dimethylbenzo[d]isoxazol-6-yl)(2-thienyl)]carboxamide], the pIC50 was more than 6.22 in the assay with RBL-2H3 cells (Rattus norvegicus), more than 7.30 in assay [1] (Homo sapiens) and more than 6.22 in assay [2].

Regarding `Cc1cc2c(C)noc2cc1-c1ccc(C(=O)Nc2ccccc2F)s1` [Example 11, [5-(3,5-dimethylbenzo[d]isoxazol-6-yl)(2-thienyl)]-N-(2-fluorophenyl)carboxamide], the pIC50 with RBL-2H3 cells (Rattus norvegicus) was more than 6.22; in assay [1] (Homo sapiens) it was more than 7.30; in assay [2], more than 6.22.

For `Cc1cc2cn(C)nc2cc1-c1ccc(C(=O)Nc2ccccc2F)s1` [Example 13], the values for the negative logarithm of the IC50 (pIC50) (with RBL-2H3 cells (Rattus norvegicus); in assay [1] (Homo sapiens); in assay [2]) were more than 6.22, more than 7.30 and more than 6.22, respectively.

Turning to `Cc1nc2cc(Cl)c(-c3cnc(NC(=O)c4ccccc4Cl)s3)cc2o1` [Example 19, N-[5-(5-chloro-2-methybenzoxazol-6-yl)(1,3-thiazol-2-yl)](2-chlorophenyl)carboxamide], the pIC50 was more than 6.22 with RBL-2H3 cells (Rattus norvegicus), 7.00 to 7.30 in assay [1] (Homo sapiens) and more than 6.22 in assay [2].

Consider `Cc1cc2scnc2cc1-c1cnc(NC(=O)c2c(F)cccc2F)s1` [Example 20], for which the figures for the pIC50 (with RBL-2H3 cells (Rattus norvegicus); in assay [1] (Homo sapiens); in assay [2]) were more than 6.22, more than 7.30 and 5.92 to 6.22, respectively.

For the molecule `CCn1nc(C(F)(F)F)cc1-c1cnc(NC(=O)c2ccccc2Cl)s1` [Example 24, (2-chlorophenyl)-N-{5-[1-ethyl-3-(trifluoromethyl)pyrazol-5-yl](1,3-thiazol-2-yl)}carboxamide], the pIC50 in the assay on RBL-2H3 cells (Rattus norvegicus) was more than 6.22; in assay [1] (Homo sapiens) it was more than 7.30; in assay [2] it was 5.92 to 6.22.

For the molecule `Cn1nc(C(F)(F)F)cc1-c1cnc(NC(=O)c2ccccc2Cl)s1` [Example 27, (2-chlorophenyl)-N-{5-[1-methyl-3-(trifluoromethyl)pyrazol-5-yl](1,3-thiazol-2-yl)}carboxamide], the negative-log IC50 (pIC50) in the assay with RBL-2H3 cells (Rattus norvegicus) is more than 6.22; in assay [1] (Homo sapiens), more than 7.30; in assay [2], more than 6.22.

Turning to `Cn1nc(C(F)(F)F)cc1-c1cnc(NC(=O)c2c(F)cccc2F)s1` [Example 28, (2,6-difluorophenyl)-N-{5-[1-methyl-3-(trifluoromethyl)pyrazol-5-yl](1,3-thiazol-2-yl)}carboxamide], the pIC50 is more than 6.22 in the assay with RBL-2H3 cells (Rattus norvegicus), more than 7.30 in assay [1] (Homo sapiens) and more than 6.22 in assay [2].

On to `Cn1nc(-c2ccccc2F)cc1-c1ccc(C(=O)Nc2c(F)cccc2F)s1` [Example 35, N-(2,6-difluorophenyl){5-[3-(2-fluorophenyl)-1-methylpyrazol-5-yl](2-thienyl)}carboxamide], for which the pIC50 with RBL-2H3 cells (Rattus norvegicus) is more than 6.22; in assay [1] (Homo sapiens) it was more than 7.30; in assay [2] it was more than 6.22.

With `Cn1nc(-c2ccccc2F)cc1-c1ccc(C(=O)Nc2ccccc2Cl)s1` [Example 41], the negative-log IC50 (pIC50) with RBL-2H3 cells (Rattus norvegicus) is more than 6.22; in assay [1] (Homo sapiens) it was less than 7.00; in assay [2], more than 6.22.

For `Cn1nc(-c2ccccc2)cc1-c1ccc(C(=O)Nc2c(F)cccc2F)s1` [Example 42, N-(2,6-difluorophenyl)[5-(1-methyl-3-phenylpyrazol-5-yl](2-thienyl)}carboxamide], the pIC50 with RBL-2H3 cells (Rattus norvegicus) is more than 6.22; in assay [1] (Homo sapiens), more than 7.30; in assay [2], more than 6.22.

With `Cn1nc(-c2ccccc2)cc1-c1ccc(C(=O)Nc2ncc(Cl)cc2F)s1` [Example 46], the negative-log IC50 (pIC50) with RBL-2H3 cells (Rattus norvegicus) was more than 6.22; in assay [1] (Homo sapiens) it was more than 7.30; in assay [2], more than 6.22.

Take `Cc1nc(-c2cc(-c3cnc(NC(=O)c4ccccc4Cl)s3)n(C)n2)no1` [Example 48]: the pIC50 was 5.92 to 6.22 with RBL-2H3 cells, less than 7.00 in assay [1] and more than 6.22 in assay [2].

For the molecule `Cn1nc(-c2nccs2)cc1-c1ccc(C(=O)Nc2ccccc2Cl)s1` [Example 55], the pIC50 with RBL-2H3 cells (Rattus norvegicus) is more than 6.22; in assay [1] (Homo sapiens) it was more than 7.30; in assay [2], more than 6.22.
